{"source": "patent US20210322327A1", "about": "“EXTRACELLULAR VESICLES COMPRISING STING-AGONIST” (Codiak BioSciences, Inc., priority 2018, published 2021)", "key": {"[1]": {"tested_on": "peritoneal cells and splenocytes", "assay": "Immune cell activation (CD86) in peritoneum and spleen 24 hours after intraperitoneal dose", "assay_type": "in vivo, C57BL/6 mice", "settings": "20 μg single IP dose", "protocol": "A second experiment similar to the previous study was carried out with single-dose IP administration, and extended to 24 hours. Peritoneal cells and splenocytes were isolated from treated mice, and cell activation was measured by detection of CD86."}, "[2]": {"tested_on": "CD8+ T-cells, macrophages, and dendritic cells", "assay": "Live CD45+ cell populations in B16F10 tumors 24 hours post-injection", "assay_type": "in vivo, mice", "settings": "20 μg intratumoral", "protocol": "Constitutive activation of the STING pathway results in robust pro-inflammatory signaling and may be toxic to cells and tissues (N Engl J Med. 2014 Aug. 7; 371(6): 507-518). Non-selective delivery of STING agonists in a tumor microenvironment may result in a robust IFNβ response, but if response is too strong or originates in undesired cell populations, effector cells such as CD8^+ T-cells may be killed or otherwise attenuated. B16F10 melanoma tumors were injected with PTGFRN-overexpressing exosomes labeled with Alexa Fluor™ 488 and removed one hour post-injection. Tumor-infiltrating lymphocytes were purified and measured for fluorescence at 488 nm to track exosome uptake. Only ˜20% of T-cells engulfed exosomes, while ˜90% and ˜70% of macrophages and dendritic cells, respectively, engulfed exosomes (FIG. 51A). […] 24 hours post-injection, the tumors were isolated, homogenized, and live CD45^+ cell populations were counted. […] Non-selective delivery of high doses of STING agonists therefore may attenuate desirable immune stimulatory responses."}, "[3]": {"tested_on": "IFNβ, CXCL9, CXCL10, IFNγ gene expression; serum cytokines", "assay": "Cytokine levels after single intratumoral dose in B16F10 tumor-bearing mice", "assay_type": "in vivo, C57BL/6 mice", "settings": "20 μg single intratumoral dose, four hours post-injection", "protocol": "Four groups of C57BL/6 mice (3-4 mice per group) were inoculated subcutaneously with 5×10^5 B16F10 tumor cells. Eight days post-inoculation the mice were injected with a single intratumoral dose of PBS, 20 μg of free ML RR-S2 CDA, 0.2 μg of free ML RR-S2 CDA, or 0.2 μg of ML RR-S2 CDA loaded in PTGFN-overexpressing exosomes (exo ML RR-S2 CDA). Four hours post-injection the tumors, draining lymph nodes, spleens, and serum were collected and cytokine levels were measured.\nTo confirm that the effects observed in FIGS. 20-23 were applicable to other STING agonists, B16F10 subcutaneous tumor-bearing mice were injected with 20 μg of free 3-3 cAIMPdFSH, 0.2 μg of free 3-3 cAIMPdFSH, or 0.2 μg of 3-3 cAIMPdFSH loaded in PTGFRN-overexpressing exosomes (exo 3-3 cAIMPdFSH)."}, "[4]": {"tested_on": "OVA-reactive splenic T-cells", "assay": "OVA-specific memory T-cell response in E.G7-OVA model", "assay_type": "in vivo, C57BL/6 mice", "protocol": "STING pathway agonism in dendritic cells enhances antigen presentation, IFNβ production, and recruits CD8+ memory T-cells to elicit a durable adaptive immune response. To determine whether Exo STING could induce a memory T-cell response to a defined antigen, an antigen-specific T-cell response study was carried out using purified ovalbumin (OVA). C57BL/6 mice were injected intraperitoneally with 200 μg OVA mixed with either PBS, 20 μg ML RR-S2, 0.2 μg ML RR-S2, or 0.2 μg ML RR-S2 loaded in PTGFRN-overexpressing exosomes (n=4-10 mice per group). […] Isolated lymphocytes were analyzed by flow cytometry by measuring binding to immobilized tetrameric MHC class I bound to the OVA peptide SIINFEKL and phycoerythrin (PE) (iTAg Tetramer/PE—H-2 OVA; MBL®, Code #T03000). OVA-reactive memory T-cells were quantified by gating on PE, CD44, and CD8 positivity.\nTo test this hypothesis, C57BL/6 mice were inoculated subcutaneously with 1×10^6 E.G7-OVA cells (ATCC®; CRL-2113™), a murine T-cell lymphoma cell line engineered to stably express OVA and allow for modeling antigen-specific T-cell responses in mice (n=5 mice per group). […] Splenic T-cells from all groups were isolated and measured for OVA-specific reactivity as described in Example 11."}, "[5]": {"tested_on": "B16F10 murine melanoma cells", "assay": "B16F10 primary tumor and re-challenge, durable T cell responses", "assay_type": "in vivo, C57BL/6 mice", "protocol": "Six, nine, and twelve days post-inoculation, the tumors were injected intratumorally with PBS, exosomes, 100 μg of free ML RR-S2 CDA, or 0.2 μg 3-3 cAIMPdFSH loaded in PTGFRN-overexpressing exosomes. […] Five additional naïve mice were inoculated with the same tumor cell preparation and treated daily with PBS to ensure cell viability and growth kinetics. By day 37 (17 days post-challenge) all mice in the PBS group were sacrificed."}, "[6]": {"tested_on": "B16F10 tumor and stroma area", "assay": "IFNβ in situ hybridization and CD8, F4/80 immunohistochemistry in B16F10 tumor sections", "assay_type": "in vivo, C57BL/6 mice", "settings": "20 μg free", "protocol": "Four groups of C57BL/6 mice (5 mice per group) were inoculated subcutaneously with 1×10^6 B16F10 tumor cells. Eight days post-inoculation the mice were injected intratumorally with dose of exosomes, 20 μg of free 3-3 cAIMPdFSH, 0.1 μg of free 3-3 cAIMPdFSH, or 0.1 μg of 3-3 cAIMPdFSH loaded in PTGFN-overexpressing exosomes (EXOSTING™). Half of the mice were injected again intratumorally at day 11 after the inoculation. Four- or 24-hours post-injection of each injection, the tumors were collected, cytokine levels were measured by in situ hybridization, and CD8 or F4/80 positive cells were counted by immunohistochemistry. Tumor area and stroma area were identified histologically. IFNβ gene expression levels in the tumor (FIG. 77A) and stroma (FIG. 77B) area were increased in the 20 μg free STING agonist and 0.1 μg EXOSTING™ groups at 4h after single dose. […] F4/80 positive cells were decreased in 20 μg free STING agonist group, but cells were recovered in 0.1 μg EXOSTING™ group (FIG. 78B)."}}}
{"smiles": "Nc1ncnc2c1ncn2[C@@H]1O[C@@H]2COP(O)(=S)O[C@@H]3C(O)[C@@H](COP(O)(=S)O[C@H]2[C@H]1O)O[C@H]3n1cnc2c(N)ncnc21", "note": "(stereo partly drawn) [ML RR-S2 CDA]", "values": [{"measurement": "peritoneal cell activation (CD86)", "setting": "[1]", "value": "activation of peritoneal B cells, macrophages, monocytes and conventional dendritic cells (cDCs)"}, {"measurement": "spleen immune cell activation (CD86)", "setting": "[1]", "value": "moderate levels of immune cell activation"}, {"measurement": "CD8+ T-cells, macrophages, and dendritic cells in tumor", "setting": "[2]", "value": "dramatically reduced compared to the other groups"}, {"measurement": "IFNβ gene expression levels in the tumor", "setting": "[3]", "value": "higher than the 0.2 μg free STING agonist and PBS groups"}, {"measurement": "memory T-cell response (OVA-specific)", "setting": "[4]; 0.2 μg intratumoral", "value": "modest memory T-cell response"}, {"measurement": "memory T-cell response (OVA-specific)", "setting": "[4]; 20 μg intratumoral", "value": "potent memory T-cell response"}, {"measurement": "animals in which re-challenge tumor growth was not inhibited", "setting": "[5]; 100 μg free group, re-challenged day 20, read day 37", "value": "10 out of 10"}, {"measurement": "animals that showed complete response (primary tumor)", "setting": "[5]; 100 μg free, intratumoral days 6, 9, 12", "value": "ten"}]}
{"smiles": "Nc1ncnc2c1ncn2[C@@H]1O[C@@H]2COP(=O)(S)O[C@H]3[C@@H](F)[C@H](n4cnc5c(=O)[nH]cnc54)O[C@@H]3COP(O)(=S)O[C@H]2[C@H]1F", "note": "(stereo partly drawn) [3-3 cAIMPdFSH, 3′3′-cAIMPdFSH]", "values": [{"measurement": "CD8 positive T cells", "setting": "[6]", "value": "not increased"}, {"measurement": "F4/80 positive cells", "setting": "[6]", "value": "decreased"}, {"measurement": "level of IFNβ in tumor and stroma area", "setting": "[6]; 4h after second doses", "value": "significantly decreased"}, {"measurement": "IFNβ gene expression in tumor and stroma area", "setting": "[6]; 4h after single dose", "value": "increased"}]}
